These results are taken from BindingDB's records for doi:10.1021/jm9903343 (Harvard Medical School, 2000).

The experiment can be described thus: Binding affinity towards Opioid receptor delta 1 by displacing the radioligand [3H]naltrindole from guinea pig brain membrane.

A word on the Ki: it is a dissociation constant, usually derived from enzyme kinetics or from competition with a known ligand. Higher therefore signals weaker binding.

`O=C1c2ccc(O)cc2C23CCCCC2C1N(CC1CCCO1)CC3` (stereo not drawn) came in with an inhibition constant Ki of 1 nM.

The molecule `O=C1c2ccc(O)cc2C23CCCCC2C1N(CC1CC1)CC3` (stereo not drawn) yielded a Ki of 150 nM.

Turning to `C[C@H]1C2C(=O)c3ccc(O)cc3[C@@]1(C)CCN2CC1CCCO1` (stereo partly drawn) [8-Hydroxy-6,11-dimethyl-3-(tetrahydro-furan-2-ylmethyl)-3,4,5,6-tetrahydro-2H-2,6-methano-benzo[d]azocin-1-one], the Ki is > 100000 nM.
